Earlier results on one compound are cited in patent publication US20250235471A1, “OIL-IN-WATER EMULSION FOR INHALATION ADMINISTRATION COMPRISING CANNABIDIOL(CBD)” (Incannex Healthcare Limited, priority 2021, published 2025).

Usually aqueous solubility stands for the dissolved amount per volume that the medium holds.

The structures appear in SMILES notation.

As to `C=C(C)[C@@H]1CCC(C)=C[C@H]1c1c(O)cc(CCCCC)cc1O` [CBD, cannabidiol], the aqueous solubility was less than 10 µg/mL. Also, the “estimated oil/water partition coefficient (Log P)” value (estimated) is on record as 6-7.
